Each structure is given as a SMILES string. Active and inactive are the calls of the source. How the calls were made is not given here.

The record followed here is ChEMBL document CHEMBL3987221, “The Australian National University Dept Of Immunology Pathogen Box Compounds Screened” (2018).

The target in assay [1] is T1, Porphobilinogen deaminase (Homo sapiens) (UniProt P08397).
T1 sequence (whole entry): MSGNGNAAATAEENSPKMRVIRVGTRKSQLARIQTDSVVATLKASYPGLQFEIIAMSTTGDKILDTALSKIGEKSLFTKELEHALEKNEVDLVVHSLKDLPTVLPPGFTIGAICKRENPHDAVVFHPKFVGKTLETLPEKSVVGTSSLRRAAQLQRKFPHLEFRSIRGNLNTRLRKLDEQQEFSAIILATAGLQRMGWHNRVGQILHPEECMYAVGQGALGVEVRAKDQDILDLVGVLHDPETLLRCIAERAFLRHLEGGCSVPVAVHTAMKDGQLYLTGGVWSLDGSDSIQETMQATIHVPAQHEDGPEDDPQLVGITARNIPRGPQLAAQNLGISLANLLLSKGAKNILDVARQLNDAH
The conditions noted are these: at 100 µM.
Description: Compound was evaluated for the inhibition of human HMBS at 100uM

Assay [2] addresses T2, Ferrochelatase, mitochondrial (Homo sapiens) (UniProt P22830).
T2 sequence (whole entry): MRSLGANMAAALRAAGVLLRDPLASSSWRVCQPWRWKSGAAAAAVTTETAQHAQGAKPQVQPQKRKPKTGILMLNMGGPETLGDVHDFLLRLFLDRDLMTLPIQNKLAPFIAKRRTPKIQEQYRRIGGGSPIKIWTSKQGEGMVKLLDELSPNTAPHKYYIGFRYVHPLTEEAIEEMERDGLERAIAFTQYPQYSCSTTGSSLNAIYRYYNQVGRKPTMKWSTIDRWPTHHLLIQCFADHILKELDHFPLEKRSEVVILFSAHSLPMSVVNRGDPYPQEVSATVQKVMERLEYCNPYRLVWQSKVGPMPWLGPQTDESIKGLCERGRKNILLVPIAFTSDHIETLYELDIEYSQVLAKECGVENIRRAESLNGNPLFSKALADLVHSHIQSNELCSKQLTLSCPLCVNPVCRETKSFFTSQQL
The note with it: at 10 µM.
Description: Compound was evaluated for the inhibition of human FECH at 10uM

On to `COC(=O)c1ccc(F)cc1NS(=O)(=O)c1cccc(-c2cnn(Cc3ccccc3)c2)c1`, for which the inhibition result in assay [1] and in assay [2] was “inactive” in each case.

Turning to `COc1ccc(C2(C(=O)Nc3ccc(Br)cc3)CCCC2)cc1`, the inhibition result in assay [1] and in assay [2] was “inactive” throughout.

`FC(F)(F)c1ccc(N(c2cccnc2)C2CCN(c3ccc(C(F)(F)F)cn3)CC2)cc1`: the inhibition entry in assay [1] and in assay [2] was “inactive” throughout.

`CCCS(=O)(=O)N1CCC(CO)(Cc2ccccc2C(F)(F)F)CC1`: the inhibition result in assay [1] and in assay [2] was “inactive” in each case.

`CS(=O)(=O)c1ccccc1C(=O)N(Cc1ccccc1)c1ccccc1`: the inhibition entry in assay [1] and in assay [2] was “inactive” each time.

Regarding `COc1ccc2nc(C)cc(OCC(=O)NCc3ccccc3)c2c1`, the inhibition result in assay [1] and in assay [2] was “inactive” in each case.

With `CC(C)(C)n1nc(Cc2ccc(F)c(Cl)c2)c2c(N)ncnc21`, the inhibition entry in assay [1] and in assay [2] was “inactive” each time.

For `COc1ccc(-c2cnc3ccc(N4CCCC4)nn23)cc1OC`, the inhibition entry in assay [1] and in assay [2] was “inactive” throughout.

Regarding `COc1cc(C2=NCCN2)ccc1-c1cn(-c2cccc(C3=NCCN3)c2)nn1`, the inhibition result in assay [1] and in assay [2] was “inactive” throughout.

As for `COC(=O)C1=C(C)NC(C)=C(C(=O)OC(C)C)C1c1cccc2nonc12` (stereo not given), the inhibition entry in assay [1] and in assay [2] was “inactive” throughout.

For `c1ccc(Oc2ccc(-c3cc(CN4CCOCC4)[nH]n3)cc2)cc1`, the inhibition result in assay [1] and in assay [2] was “inactive” throughout.

Turning to `CC[C@H](CO)NCCN[C@H](CC)CO`, the inhibition result in assay [1] and in assay [2] was “inactive” throughout.

With `CCC(Sc1nc2ccccc2o1)C(=O)Nc1nccs1` (stereo not given), the inhibition entry in assay [1] and in assay [2] was “inactive” each time.

Regarding `Cc1cc(Cl)ccc1NC(=O)CCc1ccc(S(=O)(=O)NCC(C)C)cc1`, the inhibition entry in assay [1] and in assay [2] was “inactive” each time.

Consider `CC(C(=O)N1CCCC1)N1CCN(S(=O)(=O)c2ccc(C(C)(C)C)cc2)CC1` (stereo not given), for which the inhibition result in assay [1] and in assay [2] was “inactive” throughout.

For `c1ccc(C[C@@H]2CN(c3nccc(Oc4ccc(-n5ccnc5)cc4)n3)CCN2)cc1`, the inhibition result in assay [1] and in assay [2] was “inactive” throughout.

Consider `COc1ccc(-c2cnc3cnc(-c4cccc(OC(C)C)c4)cn23)cc1`, for which the inhibition entry in assay [1] and in assay [2] was “inactive” each time.

`Brc1cncc(-c2cc(NCCCn3ccnc3)nc(-c3ccccc3)n2)c1`: the inhibition entry in assay [1] and in assay [2] was “inactive” throughout.

In the case of `O=C(N[C@H](Cc1ccccc1)C(=O)Nc1ccccc1N1CCOCC1)c1cccs1`, the inhibition result in assay [1] and in assay [2] was “inactive” each time.

On to `CC(C)(C)c1cnc(NC(=O)c2ccccc2O)s1`, for which the inhibition result in assay [1] and in assay [2] was “inactive” throughout.

Regarding `CCCCS(=O)(=O)Nc1ccc2cnn(C)c2c1`, the inhibition entry in assay [1] and in assay [2] was “inactive” throughout.

In the case of `CN1CCN(c2nccc3nc(-c4ccc(F)c(F)c4)[nH]c23)CC1`, the inhibition entry in assay [1] and in assay [2] was “inactive” in each case.

For the compound `COc1ccc(-c2cc(NC(=O)c3ccc(F)cc3Cl)ccc2OC)cc1`, the inhibition entry in assay [1] and in assay [2] was “inactive” each time.

Consider `O=C1COCc2ccc(Br)cc2N1Cc1ccc(C(F)(F)F)cc1`, for which the inhibition result in assay [1] and in assay [2] was “inactive” in each case.

Turning to `COc1ccc(C2=NCCN2)cc1-c1cn(-c2cccc(C3=NCCN3)c2)nn1`, the inhibition result in assay [1] and in assay [2] was “inactive” in each case.

As to `O=C([C@@H](c1ccc(Cl)cc1)c1cccnc1)N1CCN(c2ccc(C(F)(F)F)cc2)CC1`, the inhibition entry in assay [1] and in assay [2] was “inactive” each time.

On to `Cc1cc(O)nc(-n2nc(C)cc2C)n1`, for which the inhibition result in assay [1] and in assay [2] was “inactive” throughout.

For `COc1ccccc1CNC(=O)c1cc(C2CC2)nc2c1cnn2C(C)C`, the inhibition result in assay [1] and in assay [2] was “inactive” throughout.

On to `COc1cccc(OC)c1C(=O)Nc1ccc(Cl)c(-c2nc3ccccc3s2)c1`, for which the inhibition entry in assay [1] and in assay [2] was “inactive” in each case.

Turning to `CC(C)(C)C(=O)N(CCCCCCN1C[C@H](O)[C@@H](O)[C@H](O)[C@H]1CO)C1CCCCCC1`, the inhibition entry in assay [1] and in assay [2] was “inactive” each time.

As for `CC(=O)NCC1CN(c2ccc(-c3ccc(CO)cc3)c(F)c2)C(=O)O1` (stereo not given), the inhibition result in assay [1] and in assay [2] was “inactive” each time.

`CC1CS(=O)(=O)CCN1/N=C/c1ccc([N+](=O)[O-])o1` (stereo not given): the inhibition entry in assay [1] and in assay [2] was “inactive” throughout.

Regarding `O=C(COc1cccc(F)c1)Nc1nc(-c2ccccn2)cs1`, the inhibition entry in assay [1] and in assay [2] was “inactive” throughout.

Consider `O=C1Nc2ccc(Br)cc2C12NCCc1c2[nH]c2ccccc12` (stereo not given), for which the inhibition result in assay [1] and in assay [2] was “inactive” throughout.

As to `O=C(NC1CC1)c1ccc(N2CCOc3ccc(Cl)cc32)s1`, the inhibition result in assay [1] and in assay [2] was “inactive” each time.

Turning to `COc1ccc(-c2onc(C(F)(F)F)c2-c2ccc(Cl)cc2)c(O)c1`, the inhibition result in assay [1] and in assay [2] was “inactive” in each case.

Regarding `COc1cccc(-c2cc3c(Nc4cccnc4)nccc3[nH]2)c1`, the inhibition result in assay [1] and in assay [2] was “inactive” in each case.

For `COC(=O)c1c(NC(=O)c2c(F)c(F)c(F)c(F)c2F)sc2c1CCCCC2`, the inhibition result in assay [1] and in assay [2] was “inactive” throughout.

Take `O=C(Nc1cccnc1)c1c(O)c2cccc3c2n(c1=O)CC3`: the inhibition entry in assay [1] and in assay [2] was “inactive” in each case.

`C[C@@H]1[C@H](O)[C@@H](C)/C=C/C=C/C=C/C=C/C=C/C=C/C=C/[C@H](O[C@@H]2O[C@H](C)[C@@H](O)[C@H](N)[C@@H]2O)C[C@@H]2O[C@](O)(C[C@@H](O)C[C@@H](O)[C@H](O)CC[C@@H](O)C[C@@H](O)CC(=O)O[C@H]1C)C[C@H](O)[C@H]2C(=O)O`: the inhibition entry in assay [1] and in assay [2] was “inactive” throughout.

`Cc1ccc2c(c1C)NC(=O)C21NN=C(c2ccccc2)S1` (stereo not given): the inhibition entry in assay [1] and in assay [2] was “inactive” each time.

Consider `COc1cccc(-n2nnnc2S(C)(=O)=O)c1`, for which the inhibition result in assay [1] and in assay [2] was “inactive” in each case.

For `CC(C)(C)OC(=O)N1CCN(c2cc(-c3ccc(Oc4ccccc4)cc3)n[nH]2)CC1`, the inhibition result in assay [1] and in assay [2] was “inactive” throughout.

For the compound `CCCn1nnc(NC(=O)COc2ccc(C3CCCCC3)cc2)n1`, the inhibition result in assay [1] and in assay [2] was “inactive” in each case.

With `Cc1ccc(Oc2ccc(NC(=O)CNc3ccccc3N3CCCC3=O)cc2)cc1`, the inhibition result in assay [1] and in assay [2] was “inactive” throughout.
